Test results: patent US9163032B2, “Esters of DCPLA and methods of treatment using the same” (Blanchette Rockefeller Neurosciences Institute, priority 2011, dated 2015)
Like-named read-outs stand apart in the source and are kept apart here.

Tests used:
PKC-ε [1] = molecular target: T1, PKC-ε (Homo sapiens, UniProt Q02156); experiment: PKC activation assay with purified PKC-ε isozyme (32P-phosphoprotein formation); format: biochemical; details: for Emax: % of control of PKCε at maximum; for Specificity ε/α: Activation of PKC-ε ÷ activation or inhibition of PKCα at 3xEC50; for concentration of maximal activation: FIG. 2, FIG. 4; for EC50: lowest concentration that activates by 50% of maximum activation; for PKC-ε activation at its peak: maximum, FIG. 1, 2, 4
T1 sequence (Q02156 1-737): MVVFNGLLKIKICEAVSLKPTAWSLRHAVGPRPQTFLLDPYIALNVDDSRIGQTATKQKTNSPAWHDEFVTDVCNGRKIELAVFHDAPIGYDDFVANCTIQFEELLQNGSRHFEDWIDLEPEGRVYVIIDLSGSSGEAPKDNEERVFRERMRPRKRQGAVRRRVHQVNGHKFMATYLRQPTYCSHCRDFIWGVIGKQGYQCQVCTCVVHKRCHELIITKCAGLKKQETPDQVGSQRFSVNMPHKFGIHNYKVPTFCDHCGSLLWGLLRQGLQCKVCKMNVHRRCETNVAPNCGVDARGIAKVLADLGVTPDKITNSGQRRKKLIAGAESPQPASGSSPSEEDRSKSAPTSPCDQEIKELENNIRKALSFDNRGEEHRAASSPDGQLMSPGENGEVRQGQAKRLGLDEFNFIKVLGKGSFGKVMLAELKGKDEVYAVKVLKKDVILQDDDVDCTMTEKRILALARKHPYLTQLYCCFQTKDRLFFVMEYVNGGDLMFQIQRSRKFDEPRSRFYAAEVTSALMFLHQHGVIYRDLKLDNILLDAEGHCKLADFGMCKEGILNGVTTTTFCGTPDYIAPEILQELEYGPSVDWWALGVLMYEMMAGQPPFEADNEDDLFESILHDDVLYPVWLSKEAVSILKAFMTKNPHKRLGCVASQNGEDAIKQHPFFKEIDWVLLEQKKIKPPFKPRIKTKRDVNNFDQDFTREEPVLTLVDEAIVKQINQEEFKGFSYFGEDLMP
Method: (§1) For measurement of PKC activation by DCPLA-ME, activation of recombinant PKC-α, PKC-ε, and PKC-δ was evaluated. DCPLA-ME induced activation was measured in the absence of diacylglycerol (DAG) and phosphatidylserine (PS) as described earlier. See Nelson, T. J. et al., J. Biol. Chem., 2009, 284: 34514-34521, and Kanno, T. et al., J. Cell Physiol., 2009, 221: 183-188. Individual enzymes were incubated for 15 min at 37° C. in the presence of 10 μM histones, 4.89 mM CaCl2, 10 mM MgCl2, 20 mM HEPES (pH 7.4), 0.8 mM EDTA, 4 mM EGTA, 4% glycerol, 8 μg/ml aprotinin, 8 μg/ml leupeptin, 2 mM benzamidine, and 0.5 μCi of [γ-^32P]ATP. Purified PKC-α, PKC-ε and PKC-δ were preincubated with DCPLA-ME for 5 min at room temperature. [^32P]-Phosphoprotein formation was measured by adsorption onto phosphocellulose.
To measure PKC, 10 μl of cell homogenate or purified PKC isozyme was incubated for 15 min at 37° C. in the presence of 10 μM histones, 4.89 mM CaCl2, 1.2 μg/μl phosphatidyl-L-serine, 0.18 μg/μl 1,2-dioctanoyl-sn-glycerol, 10 mM MgCl2, 20 mM HEPES (pH 7.4), 0.8 mM EDTA, 4 mM EGTA, 4% glycerol, 8 μg/ml aprotinin, 8 μg/ml leupeptin, and 2 mM benzamidine. [γ32P]ATP (0.5 μCi) was added and 32P-phosphoprotein formation was measured by adsorption onto phosphocellulose as described previously. See Nelson et al., J. Neurochemistry, 1995, 65: 2350-2357.
PKC activity of each compound was measured in the absence of diacylglycerol and phosphatidyl-L-serine and PKC-δ and PKC-ε were measured in the absence of added EGTA and CaCl2, as described by Kanno et al., J. Lipid Res., 2006, 47: 1146-1156. Low concentrations of Ca^2+ are needed because high Ca^2+ interacts with the PKC phosphatidylserine binding site and prevents activation. […] To determine their PKC isozyme specificity, the compounds were pre-incubated with purified isoforms of PKC for five minutes and the PKC activity was measured radiometrically.
(§2) The activation and PKC isozyme specificity of DCPLA-ethyl ester was measured following the procedures in Example 1(B) and (C), except that 9 ng of the purified isozyme was used and it was pre-incubated for 5 minutes at room temperature (FIG. 3). PKC-ε activation by DCPLA-tert-butyl ester and DCPLA-retinyl ester was measured in the same manner as DCPLA-ethyl ester (FIG. 3).
The EC50 values, PKC specificity, and activation for a select number of DCPLA esters was determined (see Table 1). EC50 values were determined by measuring the lowest concentration that activates by 50% of maximum activation. […] The specificity and activation of PKC by the various esters of DCPLA were determined from the measurements of activation of PKC isozymes.

PKC-α = PKC-α (Homo sapiens, UniProt P17252); experiment: PKC activation assay with purified PKC-α isozyme; format: biochemical
Method: as §1
To measure PKC, 10 μl of cell homogenate or purified PKC isozyme was incubated for 15 min at 37° C. in the presence of 10 μM histones, 4.89 mM CaCl2, 1.2 μg/μl phosphatidyl-L-serine, 0.18 μg/μl 1,2-dioctanoyl-sn-glycerol, 10 mM MgCl2, 20 mM HEPES (pH 7.4), 0.8 mM EDTA, 4 mM EGTA, 4% glycerol, 8 μg/ml aprotinin, 8 μg/ml leupeptin, and 2 mM benzamidine. [γ32P]ATP (0.5 μCi) was added and 32P-phosphoprotein formation was measured by adsorption onto phosphocellulose as described previously. […]
PKC activity of each compound was measured in the absence of diacylglycerol and phosphatidyl-L-serine and PKC-δ and PKC-ε were measured in the absence of added EGTA and CaCl2, as described by Kanno et al., J. Lipid Res., 2006, 47: 1146-1156. […] To determine their PKC isozyme specificity, the compounds were pre-incubated with purified isoforms of PKC for five minutes and the PKC activity was measured radiometrically.
as §2

PKC-δ = PKC-δ (Homo sapiens, UniProt Q05655); experiment: PKC activation assay with purified PKC-δ isozyme; format: biochemical
Method: as §1
To measure PKC, 10 μl of cell homogenate or purified PKC isozyme was incubated for 15 min at 37° C. in the presence of 10 μM histones, 4.89 mM CaCl2, 1.2 μg/μl phosphatidyl-L-serine, 0.18 μg/μl 1,2-dioctanoyl-sn-glycerol, 10 mM MgCl2, 20 mM HEPES (pH 7.4), 0.8 mM EDTA, 4 mM EGTA, 4% glycerol, 8 μg/ml aprotinin, 8 μg/ml leupeptin, and 2 mM benzamidine. [γ32P]ATP (0.5 μCi) was added and 32P-phosphoprotein formation was measured by adsorption onto phosphocellulose as described previously. See Nelson et al., J. Neurochemistry, 1995, 65: 2350-2357. […]

[2] = test system: cultured primary rat hippocampal neurons; experiment: Neuroprotection against ASPD induced toxicity, MTT assay, primary neurons; format: cell-based; details: added to the cells with DCPLA-ME, 50 nM ASPD
Method: Viability of cells was measured by MTT assay. MTT (i.e., 3-(4,5-dimethylthiazol-2-yl)-2,5-diphenyltetrazolium bromide) is a tetrazolium salt that is cleaved to formazan by the succinate dehydrogenase, which is only active in viable cells. After solubilization of the formazan, the amount of dye can be quantified with a microplate reader at 570 nm along with a reference of 630 nm. For the MTT assay, 5×10^4 primary rat hippocampal neurons from 18-day-old embryonic Sprague-Dawley rat brains or SH-SY5Y cells were plated on each well of 24-well plates coated with poly-D-lysine. After treatment, the cells were washed with 1× PBS and were incubated with 200 μl of 1 mg/ml MTT solution (Sigma, USA) at 37° C. for 2 hr. Then the MTT-solution was removed and the cells were lysed with 200 μl isopropanol containing 0.04 M HCl and […] for 10 min. Finally, the reading was taken at 570 nm and 630 nm. All the samples were done in triplicate and the data were represented as the percentage of control.
Bryostatin 1, DCPLA, and DCPLA-ME were tested against ASPD-induced cytotoxicity to determine their neuroprotective efficacy.

PKC-ε [3] = experiment: PKC-ε level in primary neurons (immunofluorescence, Western Blot); format: cell-based, rat; details: 5 μM inhibitor, ASPD + DCPLA-ME
Method: Cells were grown in two chambered slides (Nunc, USA) at low density. For immunofluorescence staining, the cells were washed with PBS (pH 7.4) and fixed with 4% paraformaldehyde for 4 min. Following fixation, the cells were blocked and permeabilized with 5% serum and 0.3% Triton X-100 in 1×PBS for 30 min. Cells were washed three times with 1×PBS and incubated with primary antibodies for 1 hr at 1:100 dilution. After the incubation, the slides were again washed three times in 1×PBS and were incubated with the FITC anti-mouse IgG and Rhodamine anti-rabbit IgG for 1 hr at 1:400 dilution. The cells were further washed and stained with DAPI (4′,6-diamidino-2′-phenylindole, dihydrochloride) (Thermo Scientific, USA) to stain the nucleus. Finally, the slides were washed and mounted in Pro Long Gold antifade mounting solution (Invitrogen, USA) and were viewed under a LSM 710 Meta confocal microscope (Zeiss) at 350 nm, 490 nm, and 540 nm excitation and 470 nm, 525 nm, and 625 nm emission for DAPI, FITC, and Rhodamine respectively. Six individual fields at 63× oil lens magnification were analyzed for the mean fluorescence intensity (MFI) in each channel.
Cells were harvested in homogenizing buffer containing 10 mM Tris-Cl (pH 7.4), 1 mM PMSF (phenylmethylsulfonyl fluoride), 1 mM EGTA, 1 mM EDTA, 50 mM NaF, and 20 μM leupeptin, and were lysed by sonication. The homogenate was centrifuged at 100,000×g for 15 min at 4° C. to obtain the cytosolic fraction (supernatant) and membrane (pellet). The pellet was resuspended in the homogenizing buffer by sonication. […] Protein concentration was measured using the Coomassie Plus (Bradford) Protein Assay kit (Pierce, USA). Following quantification, 20 μg of protein from each sample was subjected to SDS-PAGE analysis in a 4-20% gradient Tris-Glycine gel (Invitrogen, USA). […] The blot was imaged in an ImageQuant RT-ECL (GE Life Sciences, Piscataway, N.J.) and densitometric quantification was performed using IMAL software (Blanchette Rockefeller Neurosciences Institute, Morgantown, W. Va.). […]

PKC-δ, sequence (Q05655 whole entry): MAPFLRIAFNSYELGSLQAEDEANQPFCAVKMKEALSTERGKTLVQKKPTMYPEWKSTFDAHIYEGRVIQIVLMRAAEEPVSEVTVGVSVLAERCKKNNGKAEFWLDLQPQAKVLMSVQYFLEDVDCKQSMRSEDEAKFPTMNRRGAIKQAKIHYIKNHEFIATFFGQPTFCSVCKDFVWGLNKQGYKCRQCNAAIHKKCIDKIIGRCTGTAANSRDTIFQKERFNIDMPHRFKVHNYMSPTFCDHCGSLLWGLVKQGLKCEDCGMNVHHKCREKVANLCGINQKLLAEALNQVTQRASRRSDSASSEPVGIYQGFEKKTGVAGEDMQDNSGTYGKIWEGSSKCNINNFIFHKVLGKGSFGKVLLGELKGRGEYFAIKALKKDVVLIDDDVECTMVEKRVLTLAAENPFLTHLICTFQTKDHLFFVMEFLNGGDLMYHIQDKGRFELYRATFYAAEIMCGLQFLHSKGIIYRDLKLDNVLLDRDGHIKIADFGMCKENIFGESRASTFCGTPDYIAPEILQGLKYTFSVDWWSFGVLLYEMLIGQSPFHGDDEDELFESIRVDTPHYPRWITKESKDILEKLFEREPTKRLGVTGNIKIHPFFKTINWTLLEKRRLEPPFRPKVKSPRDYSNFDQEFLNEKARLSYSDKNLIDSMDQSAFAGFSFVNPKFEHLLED

CCCCC/C=C\C/C=C\CCCCCCCC(=O)O[C@H]1CC[C@@]2(C)C(=CC[C@H]3[C@@H]4CC[C@H]([C@H](C)CCCC(C)C)[C@@]4(C)CC[C@@H]32)C1 [Cholesteryl linoleate, cholesteryl linoleate, reference compound]
PKC-ε activation (PKC-ε [1]; FIG. 4): little or no activation
PKC-α activation (PKC-α; FIG. 4): 20%

CCCCCC1CC1CC1CC1CCCCCCCC(=O)OC1CC[C@@]2(C)C(=CC[C@H]3[C@H]4CC[C@H]([C@H](C)CCCC(C)C)[C@@]4(C)CC[C@H]32)C1 (some centres unmarked) [DCPLA-cholesteryl ester, DCPLA cholesteryl ester]
affinity for PKC-ε and PKC-δ (PKC-ε [1]): extremely high affinity
form of activity vs. concentration response (PKC-ε [1]): biphasic manner
Emax (PKC-ε [1]): 122%
Specificity ε/α (PKC-ε [1]): 0.94
concentration of maximal activation (PKC-ε [1]): 0.01 nM
potency relative to Bryostatin 1 (PKC-ε [1]; from concentration of maximal activity): 18 ×
form of activity vs. concentration response (PKC-ε [1]; listed as cholesteryl ester): bimodal activation
EC50 (PKC-ε [1]): 0.005 nM
PKC-ε activation at its peak (PKC-ε [1]): up to 130 % of control
effect on PKC-α (PKC-α): inhibited at all concentrations

CCCCCC1CC1CC1CC1CCCCCCCC(=O)OC(C)C (centres unmarked) [DCPLA-isopropyl ester]
Emax (PKC-ε [1]): 140%
Specificity ε/α (PKC-ε [1]): 1.4
concentration of maximal activation (PKC-ε [1]): 10 nM
EC50 (PKC-ε [1]): 0.1 nM
PKC-ε activation at its peak (PKC-ε [1]): up to 40 % of control
effect on PKC-δ (PKC-δ): only slightly activated

EAVSLKPT
effect on DCPLA-ME neuroprotection [2]: blocked DCPLA-ME's protective effect
effect on DCPLA-ME protection of PKC-ε protein level (PKC-ε [3]): completely blocked
